This note sets out measurements from patent US20250195556A1, “COMPOSITIONS, KITS, AND METHODS TO INDUCE ACQUIRED CYTORESISTANCE USING STRESS PROTEIN INDUCERS” (FRED HUTCHINSON CANCER RESEARCH CENTER, priority 2014, published 2025).

One assay relates to HO-1. In words: Renal cortical HO-1 mRNA and protein after FeS, SnPP or B12. Conditions: for HO-1 protein increases (FIG. 21): within 4 hrs and persists for 18 hrs of IV injection. The class given is in vivo, mice. The text has this:
(§1) Methods. Male CD-1 mice (25-40 grams) Charles River, Wilmington, MA) were used for all experiments. They were housed under standard vivarium conditions with free food and water access. All experiments were approved by the Fred Hutchinson Cancer Research Center IACUC in accordance with NIH guidelines.
Effects of FeS, SnPP, and B12 on renal cortical induction of heme oxygenase 1 (HO-1). The following experiments assessed the effects of FeS, SnPP, and B12 on the possible induction of the cytoprotective protein HO-1. To this end, mice were injected with each of these agents, as noted above. Either 4 or 18 hrs later, they were anesthetized and the kidneys were removed through a midline abdominal incision. The renal cortices were dissected on ice and then extracted for protein and mRNA. The samples were then assayed for HO-1 protein by ELISA, and HO-1 mRNA by RT-PCR, factored by GAPDH levels. Five normal mice provided control values.

The test system of another assay is Male CD-1 mice. In words: Maleate model of AKI (FeS, SnPP, FeS+SnPP). The class given is in vivo. Conditions: 1 mg FeS or 1 μmole SnPP IV alone 18 hrs before maleate.
Description: as §1
Effects of Fe sucrose (FeS)/tin protoporphyrin (SnPP) on AKI severity. Maleate model of AKI. When injected into rodents, maleate undergoes relatively selective proximal tubule cell uptake via organic anion transporters. Once intracellular accumulation occurs, maleate is a preferred substrate for succinyl-CoA: 3-oxoacid CoA transferase. […] Ample levels of CoA are essential for fatty acid “activation”, allowing for their subsequent metabolism through the Krebs cycle, yielding ATP. In the absence of this process, proximal tubule ATP depletion and cell injury result. Additionally, maleate conjugates the sulfhydryl group of glutathione (GSH), culminating in GSH depletion and potential oxidant tubular stress.
The following experiment tested whether FeS, SnPP or combined FeS+SnPP can mitigate this form of acute kidney injury (AKI). […] The severity of kidney injury was assessed by determining plasma blood urea nitrogen (BUN) and plasma creatinine (PCr) concentrations.

On to cyanocobalamin [B12], for which the “HO-1 protein increases (FIG. 21)” value with HO-1 was “marked HO-1 protein increases”.
iron sucrose [FeS]: the “Severity of maleate-induced renal injury (BUN, PCr)” value with Male CD-1 mice is given as “Neither SnPP alone nor FeS alone significantly altered”. Further, the “Renal cortical HO-1 protein levels” value in the assay on HO-1 (18 hr time point) is “remained elevated”. The “HO-1 protein increases (FIG. 21)” value in the assay with HO-1 was “marked HO-1 protein increases”.
